Results published in the supplement of paper PMC10733146.

How the values were obtained:
Test in all cases: viability relative to DMSO control (fraction); higher = less drug effect (more viable cells)
Conditions in all cases: 48 h
[1] = compound: O=C(Nc1nc2cccc(-c3ccc(CN4CCS(=O)(=O)CC4)cc3)n2n1)C1CC1 [Filgotinib]
Outline: (§1)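 Viability is given as CellTiter-Glo luminescence relative to the median of 16 inner DMSO wells. Fresh or cryopreserved primary mononuclear tumour cells from blood, bone marrow (both Ficoll-isolated) or processed lymph node were plated at 4 × 10^4 cells per well in 384-well plates against five pre-plated compound concentrations, one well each. Incubation lasted 48 h at 37 °C and 5% CO2 in RPMI-1640 with penicillin/streptomycin, L-glutamine and human serum.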

[2] = compound: CCNC(=O)C[C@@H]1N=C(c2ccc(Cl)cc2)c2cc(OC)ccc2-n2c(C)nnc21 [I-BET-762]
Outline: as §1

[3] = compound: Nc1cccc2c1C(=O)N(C1CCC(=O)NC1=O)C2=O [Pomalidomide]
Outline: as §1

[4] = compound: O=C(O)CCCc1ccc(N(CCCl)CCCl)cc1 [Chlorambucil]
Outline: as §1

[5] = compound: Cn1c(CCCC(=O)O)nc2cc(N(CCCl)CCCl)ccc21 [Bendamustine]
Outline: as §1

[6] = compound: O=C(NO)c1cccc(C(=O)NCCc2ccccc2)c1
Outline: as §1

[7] = compound: c1cn2cc(-c3ccc4cn[nH]c4c3)nc(Nc3ccc(N4CCOCC4)cc3)c2n1 [Entospletinib]
Outline: as §1

[8] = compound: CO[C@H]1C[C@@H]2CC[C@@H](C)[C@@](O)(O2)C(=O)C(=O)N2CCCC[C@H]2C(=O)O[C@H]([C@H](C)C[C@@H]2CC[C@@H](OCCO)[C@H](OC)C2)CC(=O)[C@H](C)/C=C(\C)[C@@H](O)[C@@H](OC)C(=O)[C@H](C)C[C@H](C)/C=C/C=C/C=C/1C [Everolimus]
Outline: as §1

Test System	viability ([1]; 0.024 µM)	viability ([1]; 0.12 µM)	viability ([1]; 0.6 µM)	viability ([1]; 3 µM)	viability ([1]; 15 µM)	viability ([2]; 0.008 µM)	viability ([2]; 0.04 µM)	viability ([2]; 0.2 µM)	viability ([2]; 1 µM)	viability ([2]; 5 µM)	viability ([3]; 0.0032 µM)	viability ([3]; 0.016 µM)	viability ([3]; 0.08 µM)	viability ([3]; 0.4 µM)	viability ([3]; 2 µM)	viability ([4]; 0.032 µM)	viability ([4]; 0.16 µM)	viability ([4]; 0.8 µM)	viability ([4]; 4 µM)	viability ([4]; 20 µM)	viability ([5]; 0.032 µM)	viability ([5]; 0.16 µM)	viability ([5]; 0.8 µM)	viability ([5]; 4 µM)	viability ([5]; 20 µM)	viability ([6]; 0.024 µM)	viability ([6]; 0.12 µM)	viability ([6]; 0.6 µM)	viability ([6]; 3 µM)	viability ([6]; 15 µM)	viability ([7]; 0.024 µM)	viability ([7]; 0.12 µM)	viability ([7]; 0.6 µM)	viability ([7]; 3 µM)	viability ([7]; 15 µM)	viability ([8]; 0.0032 µM)	viability ([8]; 0.016 µM)	viability ([8]; 0.08 µM)	viability ([8]; 0.4 µM)	viability ([8]; 2 µM)
primary DLBCL patient cells (S049)	0.918	0.969	1.03	0.926	0.203	0.982	1.02	0.987	0.552	0.246	0.959	1.11	1	0.899	0.948	0.96	0.976	1.05	0.952	0.589	0.986	0.994	1.05	1.11	0.937	0.886	0.986	0.966	1.02	1.05	0.951	0.834	0.804	0.886	0.892	1.1	1.04	1.09	1.05	1.02
primary DLBCL patient cells (S076)	1.02	1.03	0.966	0.911	0.348	1.08	1.04	0.94	0.82	0.738	0.926	1.07	1.08	0.84	1.05	1.02	0.886	1.03	0.858	0.431	0.945	1.1	1.08	0.965	0.759	1.15	1.12	1.09	1.13	1.17	1.05	0.954	0.927	0.979	1.05	0.937	0.888	0.891	0.887	0.855
primary T-NHL patient cells (S058)	0.912	0.985	0.904	0.875	0.524	1.17	1.03	0.904	0.816	0.61	0.937	1.16	1.27	0.858	1.2	1.02	0.938	0.932	0.81	0.262	0.971	1.01	0.925	0.868	0.564	1.02	1.31	1.07	1.02	1.08	1.03	1.09	0.875	1.04	1.06	0.922	1.07	0.954	1.03	0.944
